Reference: US20140329863A1 (priority 2011, published 2014)
≈ marks a conversion by molar mass, not a printed value. Where two headings read alike, the source gives them in different places.

Legend:
[1] = Hepatic microsomal stability, dog; format: in vitro ADME; conditions: for half-life at 1 μM: beagle, liver microsomes, pH 7.4
Method: These were diluted 500-fold into 1 mL of microsomal incubation mixture to yield a final concentration of 1 μM. The incubation mixture was composed of 100 mM phosphate buffer, pH 7.4, and NADPH regenerating system (BD Biosciences NADPH Regenerating System Solutions A & B). This mixture was preincubated at 37° C. for 5 min in an Eppendorf Thermo mixer, and the reaction initiated by addition of 0.5 mg (25 μl of a 20 mg/mL solution) of liver microsomes. Aliquots (100 μl) were withdrawn at 0, 5, 15, 30, and 60 min, and added to […] ACN containing internal standard. […] The percentage of solute remaining at the end of the incubation was used to determine species-specific values of scaled intrinsic clearance, hepatic clearance, and predicted hepatic extraction based upon the calculations below (Obach, 1999).
for which mg microsomal protein/gm liver was 45 for all species, and gm liver/kg body weight were 32 for dog, 88 for mouse, 40 for rat and 25 for human.
for which ER estimates the amount of compound cleared during a single pass through the liver (Low ER <0.3, moderate ER 0.3-0.7, high ER>0.7).

[2] = […]
[3] = Single-dose pharmacokinetic studies in female FVB mice (PO, IV, IP); format: in vivo, mouse; conditions: mouse; for bioavailability / Kp: female, 10 mg/kg; for bioavailability: FVB, mice, IV 1 mg/kg, oral 10 mg/kg, read-out: oral (absolute) bioavailability; for Kp: brain and plasma, FVB mice, single oral dose, read-out: brain:plasma AUClast ratio
Method: For in-vivo pharmacokinetic studies, compounds were dissolved in a formulation containing 20% propylene glycol, 5% ethanol, 5% labrosol, and 70% polyethylene glycol 400 (PEG400) and administered by oral gavage to female FVB mice weighing ˜25 g. At specified time points after dosing (0.25, 0.5, 1, 2, 4, 6, and 24 h), 2 animals were euthanized by CO2, and ˜1 mL blood (by cardiac puncture) and brain samples were collected. The heparinized blood samples were centrifuged to obtain plasma, which was stored at −80° C. until analysis. Brain samples were weighed, diluted […] with water, and then homogenized using a Precellys 24 tissue homogenizer. Brain homogenates (20% wt/vol) were stored at −80° C. until analysis. Pharmacokinetic protocols involving animals were all reviewed and approved by the UCSF institutional animal care and use committee (IACUC).
(§1) Plasma and brain homogenate samples were extracted using a protein-precipitation method and analyzed by specific LC/MS/MS methods developed for each compound dosed in vivo. The analytical method accuracy and precision were monitored by analyzing quality control (QC) samples that were prepared and treated using the same methods as calibration standards for the plasma or brain homogenate samples.
The data were used to calculate the area under the concentration-time curve (AUClast) by noncompartmental analysis with sparse sampling performed using Phoenix WinNonlin 6.1 software (Pharsight, Mountain View, Calif.).
Pharmacokinetic protocols employing mice were reviewed and approved by the UCSF Institutional Animal Care and Use Committee (IACUC). Female FVB mice, weighing approximately 25 g, were used for all in vivo pharmacokinetic studies. Mice were housed with free access to food and water, and were maintained on 12-h light/dark cycles for 1 week before dosing studies were initiated.
For the single-dose of 40 mg/kg, compounds were dissolved in a formulation containing 5% propylene glycol, […] α-tocopheryl polyethylene glycol 1000 succinate (TPGS) and 70% polyethylene glycol 400 (PEG400), and administered by oral gavage. Two animals per time point were used. At specified time points after dosing (0.5, 1, 2, 4, 6, and 24 h), animals were euthanized by CO2, and blood for plasma (by cardiac puncture) and brain samples were collected. The heparinized blood samples were centrifuged to obtain plasma. Brain samples were weighed, diluted 10-fold with water, and then homogenized using a Precellys 24 tissue homogenizer. The brain and plasma samples were flash-frozen on dry ice and then stored at −80° C. until analysis. For the single-dose administration at 10 mg/kg, compounds were dissolved in a formulation containing 20% propylene glycol, 5% ethanol, 5% labrosol, and 70% PEG400, and administered by oral gavage. Two animals per time point were used. At specified time points after dosing (0.25, 0.5, 1, 2, 4, 6, and 24 h), animals were euthanized by CO2, and blood for plasma (by cardiac puncture) and brain samples were collected. The heparinized blood samples were centrifuged to obtain plasma. Brain samples were weighed, diluted five-fold with water, and then homogenized using a Precellys 24 tissue homogenizer. The brain and plasma samples were flash-frozen on dry ice and then stored at −80° C. until analysis.
Compounds were administered through tail vein injection. Two animals per time point were used. At specified time points after dosing (5 min, 0.25, 0.5, 1, 2, 4, and 6 h), animals were euthanized by CO2. Blood and brain samples were obtained and processed as described above for the oral dosing at 40 mg/kg.
as §1, with “by” for “and treated using”, “as” for “as calibration standards for”, “samples. […]” for “samples.”

[4] = Tolerability / toxicity on repeated dosing in mice
[5] = test system: PrP^Sc in dividing ScN2a-c13 cells; conditions: read-out: EC50 (ELISA), reduction of PrP^Sc load; dividing ScN2a-c13 cells
ScN2a-c13 cells = experiment: cells; format: cell-based; conditions: Mus musculus; N=3; read-out: EC50 by calcein for cell viability
[6] = Multidose (three-day) pharmacokinetics in liquid diet in FVB mice; conditions: for concentration at 3 days: FVB, mouse, in vivo
[7] = for solubility in FaSSIF (in words): fasted-state simulated intestinal fluid; for solubility at pH 2.0 (in words): pH 2 (HCl) buffer
in vitro = conditions: dog, MDCK-MDR1
P-gp (MDR1) = experiment: in vitro; conditions: dog, MDCK-MDR1
[8] = female dog microsomes, read-out: t1/2 Dog Female
[9] = chronic studies in mice, wide range of doses
[10] = 40 mg/kg, Brain Concentration (Css), three-day dosing in liquid diet, brain
[11] = 40 mg/kg, Plasma Concentration (Css), three-day dosing in liquid diet, plasma
[12] = 80 mg/kg, Brain Concentration (Css), three-day dosing in liquid diet, brain
[13] = 80 mg/kg, Plasma Concentration (Css), three-day dosing in liquid diet, plasma
[14] = 130 mg/kg, Brain Concentration (Css), three-day dosing in liquid diet, brain
[15] = 130 mg/kg, Plasma Concentration (Css), three-day dosing in liquid diet, plasma
[16] = 210 mg/kg, Brain Concentration (Css), three-day dosing in liquid diet, brain
[17] = 210 mg/kg, Plasma Concentration (Css), three-day dosing in liquid diet, plasma
[18] = cell culture media, plasma or biological fluid
[19] = pH 2 (HCl) buffer, pH 2, simulated gastric fluid
[20] = pH 7.4 (phosphate) buffer, pH 7.4, aqueous buffer
[21] = Brain and plasma concentrations, 40, 80, 130 and 210 mg/kg/day for 3 days
[22] = male dog microsomes, read-out: t1/2 Dog Male

Row | SMILES | half-life at 1 μM [1, 8] | bioavailability ([3]; plasma, po) | concentration at 3 days [6, 10] | concentration at 3 days [6, 11] | concentration at 3 days [6, 12] | concentration at 3 days [6, 13] | concentration at 3 days [6, 14] | concentration at 3 days [6, 15] | concentration at 3 days [6, 16] | concentration at 3 days [6, 17] | solubility in FaSSIF (in words) [7] | solubility at pH 2.0 (in words) [7] | hepatic extraction ratio (ER) [2] | Papp A→B (in vitro) | Papp B→A (in vitro) | efflux ratio (P-gp (MDR1)) | solubility (physchem; FaSSIF) | solubility (physchem; [18]) | solubility (physchem; [19]) | solubility (physchem; [20]) | other results
1 | Cc1cccc(Nc2nc(-c3ccc(-c4ccccc4)cc3)cs2)n1 [IND24, (4-Biphenyl-4-yl-thiazol-2-yl)-(6-methyl-pyridin-2-yl)-amine] | 51 min | 40% | 8700 ± 1460 nM | 8190 ± 8090 nM | 19300 ± 2280 nM | 5550 ± 1180 nM | 31800 ± 5460 nM | 11700 ± 4850 nM | 37400 ± 9060 nM | 18900 ± 20500 nM |  |  |  |  |  |  |  |  |  |  | half-life at 1 μM ([1]; male dog microsomes, * extrapolated, read-out: t1/2 Dog Male (extrapolated)): 140 min; metabolic stability (in words) [2]: stable; bioavailability ([3]; plasma, oral): 27 to 40%; Kp [3]: 2.6; half-life ([3]; plasma, female FVB mice, 1 mg/kg IV): 120 min; tolerability [4, 9]: well tolerated; EC50 [5]: 1.27 µM; EC50 (ScN2a-c13 cells): > 10 µM; Brain concentrations ([6]; female FVB mice, 75 mg/kg, formulations containing 0.125-1.25% (v/v) PEG400): > 8000 nM
2 | Cc1ccc(Nc2nc(-c3cc(-c4ccccc4)no3)cs2)nc1 [IND33, (5-Methyl-pyridin-2-yl)-[4-(3-phenyl-isoxazol-5-yl)-thiazol-2-yl]-amine] |  |  | 880 ± 680 nM | 650 ± 380 nM | 5390 ± 2930 nM | 2850 ± 1300 nM | 30000 nM | 4740 ± 1310 nM | 12600 ± 8620 nM | 14200 ± 2090 nM | higher solubility | lower | lower to moderate | 6.8 ×10⁻⁶ cm/s | 8.3 ×10⁻⁶ cm/s | 1.2 | 70 µM (≈ 23.4 µg/mL) | 225 µM (≈ 75.2 µg/mL) | 1 µM (≈ 0.334 µg/mL) | < 1 µM | Brain Concentration (Css), 130 mg/kg ([6]; three-day dosing in liquid diet, 130 mg/kg, brain): 23300 ± 13200 nM
3 | COc1ccc(-c2csc(Nc3ccc4ccccc4n3)n2)cc1OC [IND47, [4-(3,4-Dimethoxy-phenyl)-thiazol-2-yl]-quinolin-2-yl-amine] |  |  | 400 ± 280 nM | 130 ± 100 nM |  | 30 ± 20 nM | 400 ± 510 nM | 60 ± 20 nM | 230 ± 260 nM | 120 ± 50 nM | lower solubility | lower solubility | lower to moderate | 9.2 ×10⁻⁶ cm/s | 8.9 ×10⁻⁶ cm/s | 1 | 5 µM (≈ 1.82 µg/mL) | 52 µM (≈ 18.9 µg/mL) | < 1 µM | < 1 µM | concentration at 3 days [6, 21]: ≤ 1000 nM
4 | Cc1ccnc(Nc2nc(-c3ccncc3)cs2)c1 [IND52, (4-Methyl-pyridin-2-yl)-(4-pyridin-4-yl-thiazol-2-yl)-amine] |  |  |  | 10 ± 10 nM | 760 ± 1090 nM | 670 ± 1000 nM | 2340 ± 2130 nM | 1930 ± 1580 nM | 7650 ± 5570 nM | 10900 ± 8440 nM |  |  | higher | 36.2 ×10⁻⁶ cm/s | 48.7 ×10⁻⁶ cm/s | 1.3 | 2 µM (≈ 0.537 µg/mL) | 76 µM (≈ 20.4 µg/mL) | 215 µM (≈ 57.7 µg/mL) | 1 µM (≈ 0.268 µg/mL) | EC50 [5]: 4.95 µM; EC50 (ScN2a-c13 cells): > 10 µM; Brain Concentration (Css), 40 mg/kg ([6]; three-day dosing in liquid diet, 40 mg/kg, brain): no measurable brain concentrations
5 | Cc1ccnc(Nc2nc(-c3ccc(-c4ccccn4)s3)cs2)c1 [IND81, (4-Methyl-pyridin-2-yl)-[4-(5-pyridin-2-yl-thiophen-2-yl)-thiazol-2-yl]-amine] | 26 min | 25 to 27% |  |  |  |  |  |  |  |  | lower solubility | higher solubility |  | 16 ×10⁻⁶ cm/s | 20.9 ×10⁻⁶ cm/s |  | 3 µM (≈ 1.05 µg/mL) | 207 µM (≈ 72.5 µg/mL) | 78 µM (≈ 27.3 µg/mL) | < 1 µM | half-life at 1 μM [1, 22]: 23 min; bioavailability ([3]; plasma, oral): 27 to 40%; Kp [3]: 5.5; tolerability [4, 9]: well tolerated; EC50 (ScN2a-c13 cells): > 10 µM
6 | c1ccc2cc(Nc3nc(-c4ccncc4)cs3)ncc2c1 [IND85, Isoquinolin-3-yl-(4-pyridin-4-yl-thiazol-2-yl)-amine] |  |  | 20 ± 30 nM |  | 80 ± 30 nM |  | 40 ± 30 nM |  | 100 ± 70 nM |  | lower solubility | higher solubility | higher | 3.03 ×10⁻⁶ cm/s | 4.44 ×10⁻⁶ cm/s | 1.5 | 3 µM (≈ 0.913 µg/mL) | 116 µM (≈ 35.3 µg/mL) | 196 µM (≈ 59.7 µg/mL) | < 1 µM | concentration at 3 days [6, 21]: ≤ 1000 nM
7 | C(=N\Nc1ccc(-c2cnco2)cc1)/c1ccncc1 [IND54304, reference compound] | 16 min | 25 to 27% |  |  |  |  |  |  |  |  |  |  |  |  |  |  |  |  |  |  | half-life at 1 μM [1, 22]: 20 min; Hepatic Extraction Ratio Dog Female ([1]; female dog microsomes): 0.80; Hepatic Extraction Ratio Dog Male ([1]; male dog microsomes): 0.79; Kp [3]: 0.5; tolerability ([4]; 25, 50, 100, 150 mg/kg for 3 days in liquid diet): tolerated; animals dying ([4]; ≧150 mg/kg/day for 8 days): 2/4; EC50 [5]: 0.4 µM
